Results: US20060063717A1, “Novel inhibitor of beta amyloid cleavage” (Pfizer Inc, priority 2001, published 2006)
pIC50: −log10 of the molar value. *1 amine or outer side, *2 acyl side, *3 side chain or, on linkers, in order; H or OH if unused. Where a SMILES comes first, the peptide text is derived from it. [ ]: non-standard residue; d: D form. X1 = CC(C)(O)[C@H](C[C@H](O)[C@H](CC1CCCCC1)N[*:1])C(=O)[*:2]

Target: β-Secretase (Homo sapiens, UniProt P56817)
Conditions: in-vitro ELISA; βAP produced in presence of β-Secretase and APP versus control without inhibitor
Source text: Such assays, which are well known in the art, measure the concentration of βAP produced (by detection of an antibody against the amino terminus of βAP) in the presence of β-Secretase and APP versus control experiments in the absence of inhibitor.

Sequence of β-Secretase (P56817 46-501): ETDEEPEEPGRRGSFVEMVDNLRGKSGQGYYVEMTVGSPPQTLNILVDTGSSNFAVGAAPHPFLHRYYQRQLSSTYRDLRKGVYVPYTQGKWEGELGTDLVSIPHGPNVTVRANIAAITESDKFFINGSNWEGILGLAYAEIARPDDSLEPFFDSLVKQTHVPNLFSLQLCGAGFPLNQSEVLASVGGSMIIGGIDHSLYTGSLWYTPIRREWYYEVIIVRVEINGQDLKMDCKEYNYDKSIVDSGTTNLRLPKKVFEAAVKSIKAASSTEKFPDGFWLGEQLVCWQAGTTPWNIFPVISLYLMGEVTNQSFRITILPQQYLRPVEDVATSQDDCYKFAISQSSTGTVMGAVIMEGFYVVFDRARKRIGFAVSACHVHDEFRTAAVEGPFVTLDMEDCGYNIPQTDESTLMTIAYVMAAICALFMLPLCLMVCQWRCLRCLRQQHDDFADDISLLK

CC(C)[C@H](NC(=O)[C@@H](N)CCC(=O)O)C(=O)N[C@@H](CC(N)=O)C(=O)N[C@@H](CC1CCCCC1)[C@@H](O)C[C@H](C(=O)N[C@H](C)C(=O)N[C@H](CCC(=O)O)C(=O)N[C@H](Cc1ccccc1)C(=O)O)C(C)(C)O [compound of formula I] (H-EVN[X1][dA][dE][dF]-OH)
pIC50: 7.31
